Laboratory results published in the supplement of paper PMC10307832.

Legend:
Experiment in all cases: relative viability (nuclei count vs DMSO), 5 days (fraction); higher = more cells survive
AZD5582 + Pictilisib = compound: C[C@@H](C(=O)N[C@@H](C1CCCCC1)C(=O)N2CCC[C@H]2C(=O)N[C@@H]3[C@@H](CC4=CC=CC=C34)OCC#CC#CCO[C@@H]5CC6=CC=CC=C6[C@@H]5NC(=O)[C@@H]7CCCN7C(=O)[C@H](C8CCCCC8)NC(=O)[C@H](C)NC)NC [AZD5582] + CS(=O)(=O)N1CCN(Cc2cc3nc(-c4cccc5[nH]ncc45)nc(N4CCOCC4)c3s2)CC1 [Pictilisib] (partner 1 µM)
Outline: (§1)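 One day after seeding in 1536-well plates, lung cancer cell lines were dosed by pin tool. Dosing was either single-drug or a fixed anchor-drug dose plus five library-drug doses (not always all listed) in √10 steps. After 5 days, nuclei were stained in one fix-and-stain step and counted on 4× images, and relative viability is the nuclei count of treated wells over that of vehicle wells, given as the median of duplicate plates.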

AZD5582 + OSI-027 = compound: C[C@@H](C(=O)N[C@@H](C1CCCCC1)C(=O)N2CCC[C@H]2C(=O)N[C@@H]3[C@@H](CC4=CC=CC=C34)OCC#CC#CCO[C@@H]5CC6=CC=CC=C6[C@@H]5NC(=O)[C@@H]7CCCN7C(=O)[C@H](C8CCCCC8)NC(=O)[C@H](C)NC)NC [AZD5582] + COc1cccc2cc(-c3nc([C@H]4CC[C@H](C(=O)O)CC4)n4ncnc(N)c34)[nH]c12 [OSI-027] (partner 0.5 µM)
Outline: as §1

AZD5582 + Linsitinib = compound: C[C@@H](C(=O)N[C@@H](C1CCCCC1)C(=O)N2CCC[C@H]2C(=O)N[C@@H]3[C@@H](CC4=CC=CC=C34)OCC#CC#CCO[C@@H]5CC6=CC=CC=C6[C@@H]5NC(=O)[C@@H]7CCCN7C(=O)[C@H](C8CCCCC8)NC(=O)[C@H](C)NC)NC [AZD5582] + C[C@]1(O)C[C@@H](c2nc(-c3ccc4ccc(-c5ccccc5)nc4c3)c3c(N)nccn32)C1 [Linsitinib] (partner 1 µM)
Outline: as §1

AZD5582 + Tozasertib = compound: C[C@@H](C(=O)N[C@@H](C1CCCCC1)C(=O)N2CCC[C@H]2C(=O)N[C@@H]3[C@@H](CC4=CC=CC=C34)OCC#CC#CCO[C@@H]5CC6=CC=CC=C6[C@@H]5NC(=O)[C@@H]7CCCN7C(=O)[C@H](C8CCCCC8)NC(=O)[C@H](C)NC)NC [AZD5582] + Cc1cc(Nc2cc(N3CCN(C)CC3)nc(Sc3ccc(NC(=O)C4CC4)cc3)n2)n[nH]1 [Tozasertib] (partner 0.1 µM)
Outline: as §1

AZD5582 + Crizotinib = compound: C[C@@H](C(=O)N[C@@H](C1CCCCC1)C(=O)N2CCC[C@H]2C(=O)N[C@@H]3[C@@H](CC4=CC=CC=C34)OCC#CC#CCO[C@@H]5CC6=CC=CC=C6[C@@H]5NC(=O)[C@@H]7CCCN7C(=O)[C@H](C8CCCCC8)NC(=O)[C@H](C)NC)NC [AZD5582] + C[C@@H](Oc1cc(-c2cnn(C3CCNCC3)c2)cnc1N)c1c(Cl)ccc(F)c1Cl [Crizotinib] (partner 1 µM)
Outline: as §1

Cell Line	relative viability (AZD5582 + Pictilisib; first compound 0.001581 µM)	relative viability (AZD5582 + Pictilisib; first compound 0.005 µM)	relative viability (AZD5582 + Pictilisib; first compound 0.01581 µM)	relative viability (AZD5582 + Pictilisib; first compound 0.05 µM)	relative viability (AZD5582 + OSI-027; first compound 0.01581 µM)	relative viability (AZD5582 + OSI-027; first compound 0.05 µM)	relative viability (AZD5582 + Linsitinib; first compound 0.001581 µM)	relative viability (AZD5582 + Linsitinib; first compound 0.005 µM)	relative viability (AZD5582 + Linsitinib; first compound 0.01581 µM)	relative viability (AZD5582 + Linsitinib; first compound 0.05 µM)	relative viability (AZD5582 + Tozasertib; first compound 0.01581 µM)	relative viability (AZD5582 + Tozasertib; first compound 0.05 µM)	relative viability (AZD5582 + Crizotinib; first compound 0.001581 µM)	relative viability (AZD5582 + Crizotinib; first compound 0.005 µM)	relative viability (AZD5582 + Crizotinib; first compound 0.01581 µM)	relative viability (AZD5582 + Crizotinib; first compound 0.05 µM)	relative viability (AZD5582 + OSI-027; first compound 0.001581 µM)	relative viability (AZD5582 + OSI-027; first compound 0.005 µM)	relative viability (AZD5582 + Tozasertib; first compound 0.001581 µM)	relative viability (AZD5582 + Tozasertib; first compound 0.005 µM)
NCI-H596	0.31	0.348	0.413	0.191	0.614	0.334	1.28	0.503	1.08	0.246	0.943	0.338	0.902	0.279	1.03	0.1	–	–	–	–
NCI-H647	0.388	0.449	–	0.458	0.463	0.75	1.1	1.01	1.25	0.934	0.255	0.357	0.809	0.732	1.02	0.327	0.599	0.704	0.269	0.347
NCI-H650	0.645	0.702	0.759	0.589	0.364	0.32	0.649	0.758	0.431	0.564	0.722	0.628	0.581	0.393	0.591	0.401	0.431	0.509	0.648	0.876
NCI-H661	0.36	0.416	0.403	0.399	0.722	0.676	0.469	0.552	0.58	0.682	0.389	0.358	0.902	0.845	1.04	0.892	0.6	0.725	0.361	0.368
NCI-H727	0.258	0.4	0.413	0.257	0.508	0.529	0.309	0.253	0.465	0.258	0.58	0.78	0.762	0.896	0.749	0.721	0.51	0.473	0.651	0.732
NCI-H838	0.39	0.467	0.362	0.59	–	0.449	0.973	0.968	0.842	1	–	0.292	0.823	0.914	0.746	1.04	0.339	0.423	0.265	0.307
NCI-H1355	0.372	0.379	0.289	0.361	0.288	0.322	0.774	0.829	0.788	0.96	0.52	0.6	1.02	0.857	0.982	1.05	0.355	0.468	0.488	0.558
NCI-H1437	0.439	0.452	0.48	0.409	0.77	0.94	0.862	0.95	0.976	1.01	0.399	0.358	0.856	0.713	0.858	0.957	0.787	0.893	0.373	0.385
NCI-H1651	0.616	0.656	0.539	0.723	–	0.983	0.894	1.06	1.01	1.21	–	0.918	0.85	0.91	0.854	0.939	0.667	0.813	0.727	0.845
NCI-H1666	0.481	0.48	0.413	0.407	0.808	0.874	0.779	0.713	0.848	0.861	0.638	0.678	0.662	0.817	1.01	0.808	0.65	0.696	0.539	0.682
NCI-H1734	0.455	0.514	0.451	0.631	0.595	0.594	0.953	0.869	0.895	1.1	0.257	0.313	0.662	0.717	0.682	0.746	0.691	0.704	0.255	0.263
NCI-H1755	0.349	0.424	0.306	0.398	0.58	0.659	1.01	1.02	0.982	1.09	0.599	0.587	0.793	0.846	0.86	0.916	0.567	0.673	0.523	0.652
NCI-H1915	0.88	0.999	0.824	0.936	0.475	0.627	1.08	1.13	1.11	0.905	0.447	0.42	0.854	0.916	0.915	0.882	0.559	0.64	0.379	0.452
NCI-H1944	0.344	0.389	0.297	0.389	0.412	0.446	1.15	1.4	1.21	1.44	0.266	0.297	0.914	1.07	1.09	1.07	0.369	0.428	0.226	0.25
